Source: patent US12485192B2, “Cellular targeted label delivery system” (CELLIS AG, priority 2016, dated 2025)

Tests used:
[1] = system: metastatic 4T1 cancer; conditions: mouse, in vivo, iv
Excerpt: After labeling, cells should be centrifuged and supernatant should be removed. This step should be repeated until no radioactivity is detected in the supernatant.

[2] = system: CD45+ leukocyte cells (macrophages, monocytes, lymphocytes, granulocytes); test: Uptake of iron binding proteins by CD45+ leukocyte cells in culture; type: cell-based, mouse; conditions: incubation 1-4 hrs, 0.1-0.2 mg/ml protein solution, standard culture conditions; FIG. 5
Experimental: Obtained cells are incubated in ferritin solution for a time and at the concentration sufficient to ensure proper ratio of ferritin/cell for their full load and also to ensure proper contrast content to obtain proper imaging). The time and concentration may vary depending on the number of molecules encapsulated/adsorbed into the ferritin cage, status of cell activation, condition and number of their intended administration.
For example, to ensure proper load with ferritins, cells are incubated for 1-4 hrs in ferritin solution 0.2 mg/ml in standard culture conditions. The frame of ferritin concentration may vary at least between 0.01 and 4 mg/ml as well as incubation time (5 min-6 hrs or more). Adjusting time and concentration of ferritin load to cells, the influence of ferritin and treatment conditions on cell viability should be minded.
Obtained cells are incubated in haemoglobin solution for a time and at the concentration sufficient to ensure proper ratio of haemoglobin/cell for their full load and also to ensure proper contrast content to obtain proper imaging. The time and concentration may vary depending on the number of molecules linked with the haemoglobin molecule, status of cell activation, condition and number of their intended administration. […]

Substance | PET signal [1] | uptake of iron binding protein by cells [2]
18F fluorodeoxyglucose [plain 18F-1-DG] | lower PET signal | 
haemoglobins: human haemoglobin prepared from fresh red cells |  | very easily uptake
transferrin: human holo-transferrin purified from serum of healthy donor |  | very easily uptake
